# According to ChEMBL document CHEMBL1764989, “Local structural changes, global data views: graphical substructure-activity relationship trailing” (J Med Chem, 2011):
# Target: Coagulation factor X (Homo sapiens, UniProt P00742)
# Assay: Inhibition of human factor 10a
# Sequence of Coagulation factor X (P00742 41-179 limits assumed): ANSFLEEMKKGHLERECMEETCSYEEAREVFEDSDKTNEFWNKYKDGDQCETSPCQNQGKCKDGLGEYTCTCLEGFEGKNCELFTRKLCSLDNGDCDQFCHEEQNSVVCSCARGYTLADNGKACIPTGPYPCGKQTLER
# Sequence of Coagulation factor X (P00742 235-488 limits assumed): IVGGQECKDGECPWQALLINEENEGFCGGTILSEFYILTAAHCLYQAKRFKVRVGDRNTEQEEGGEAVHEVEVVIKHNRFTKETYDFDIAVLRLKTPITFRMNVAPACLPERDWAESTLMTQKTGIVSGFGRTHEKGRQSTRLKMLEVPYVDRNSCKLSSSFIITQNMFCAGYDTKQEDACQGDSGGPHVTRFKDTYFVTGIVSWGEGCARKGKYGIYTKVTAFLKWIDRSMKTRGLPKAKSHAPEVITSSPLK
row,Ki [nM],Compound
1,1260,COc1ccc2ccc(S(=O)(=O)NC3CCN(Cc4cc(N)cc(C(=N)N)c4)C3=O)cc2c1 (stereo not given)
2,7.94,COC(=O)COc1ccc(C(=N)N)cc1CN1CCC(NS(=O)(=O)c2ccc3ccc(OC)cc3c2)C1=O (stereo not given)
3,1260,COc1ccc2ccc(S(=O)(=O)NC3CCN(Cc4cc(C(=N)N)ccc4OCC(=O)O)C3=O)cc2c1 (stereo not given)
4,6.31,COc1ccc(-n2nc(C(F)(F)F)c3c2C(=O)N(c2ccc(N(C)C)cc2)CC3)cc1
5,0.2,COc1ccc(-n2nc(C(F)(F)F)c3c2C(=O)N(c2ccc(-c4ccccc4S(C)(=O)=O)cc2)CC3)cc1
6,6.31,COc1ccc2ccc(S(=O)(=O)NC3CCN(Cc4cc(C(=N)N)ccc4N)C3=O)cc2c1 (stereo not given)
7,1000,COc1ccc2ccc(S(=O)(=O)NC3CCN(Cc4ccc(O)c(C(=N)N)c4)C3=O)cc2c1 (stereo not given)
8,3.16,COc1ccc2ccc(S(=O)(=O)NC3CCN(Cc4cc(C(=N)N)ccc4O)C3=O)cc2c1 (stereo not given)
9,0.501,COc1ccc(-n2nc(C(F)(F)F)c3c2C(=O)N(c2ccc(-c4ccccc4CN4CCC(O)C4)cc2)CC3)cc1 (stereo not given)
10,200,COc1ccc(-n2nc(C(F)(F)F)c3c2C(=O)N(c2ccc(NC(C)=O)cc2)CC3)cc1
